Where a name gives a salt, the structure may show the parent alone.
Assay: In Vitro Human Liver Microsomal (HLM) Stability Assay
Assay type: in vitro ADME
Settings: vs non-isotopically enriched drug, 1 μM, 4 mg per mL liver microsome protein, 37° C.
Protocol: Liver microsomal stability assays are conducted at 4 mg per mL liver microsome protein with an NADPH-generating system in 2% NaHCO3 (2.2 mM NADPH, 25.6 mM glucose 6-phosphate, 6 units per mL glucose 6-phosphate dehydrogenase and 3.3 mM MgCl2). Test compounds are prepared as solutions in 20% acetonitrile-water and added to the assay mixture (final assay concentration 1 μM) and incubated at 37° C. Final concentration of acetonitrile in the assay should be <1%. Aliquots (50 μL) are taken out at times 0, 0.5, 1, 1.5, and 2 hours, and diluted with ice cold acetonitrile (200 μL) to stop the reactions. Samples are centrifuged at 12,000 RPM for 10 min to precipitate proteins. Supernatants are transferred to micro centrifuge tubes and stored for LC/MS/MS analysis of the degradation half-life of the test compounds.
Results of In Vitro Human Liver Microsomal (HLM) Stability Assay

Structure (SMILES) | % increase of HLM degradation half-life 0%-50% | % increase of HLM degradation half-life 50%-150% | also measured
[2H]O[C@@]1(c2c([2H])c([2H])c([2H])c(OC([2H])([2H])[2H])c2[2H])C([2H])([2H])C([2H])([2H])C([2H])([2H])C([2H])([2H])[C@@]1([2H])C([2H])([2H])N(C([2H])([2H])[2H])C([2H])([2H])[2H] [Example 1, d25-(−)-(1S,2S)-2-[(Dimethylamino)-methyll-1-(3-methoxyphenyl)-cyclohexanol)] | + (0%-50%) |  | 
[2H]O[C@]1(c2c([2H])c([2H])c([2H])c(OC([2H])([2H])[2H])c2[2H])C([2H])([2H])C([2H])([2H])C([2H])([2H])C([2H])([2H])[C@]1([2H])C([2H])([2H])N(C([2H])([2H])[2H])C([2H])([2H])[2H] [Example 2] |  |  | % increase of HLM degradation half-life −25%-0% (column −25%-0%): + (−25%-0%)
[2H]c1c([2H])c(O)c([2H])c([C@]2(O)C([2H])([2H])C([2H])([2H])C([2H])([2H])C([2H])([2H])[C@@]2([2H])C([2H])([2H])N(C([2H])([2H])[2H])C([2H])([2H])[2H])c1[2H] [Example 3] | + (0%-50%) |  | 
COc1cccc(C2(O)CCCCC2CN(C)C)c1 (stereo not drawn) [Example 5, 2-(Dimethylaminomethyl)-1-(3-methoxyphenyl)-cyclohexanol, reference compound] |  | + (50%-150%) | 
COc1cccc([C@@]2(O)CCCC[C@@H]2CN(C)C)c1 [Example 6, (1R, 2R)-2-(Dimethylaminomethyl)-1-(3-methoxyphenyl)-cyclohexanol hydrochloride, reference compound] |  | + (50%-150%) | 
[2H]C([2H])([2H])Oc1cccc(C2(O)CCCCC2CN(C)C)c1 (stereo not drawn) [Example 8, d3-2-(Dimethylaminomethyl)-1-(3-methoxyphenyl)-cyclohexanol] | + (0%-50%) |  | 
[2H]C([2H])([2H])Oc1cccc([C@@]2(O)CCCC[C@@H]2CN(C)C)c1 [Example 9, d3-(1R, 2R)-2-(Dimethylaminomethyl)-1-(3-methoxyphenyl)-cyclohexanol hydrochloride] |  | + (50%-150%) | 
[2H]C([2H])([2H])N(CC1CCCCC1(O)c1cccc(OC)c1)C([2H])([2H])[2H] (stereo not drawn) [Example 11] |  | + (50%-150%) | 
[2H]C([2H])([2H])N(C[C@H]1CCCC[C@]1(O)c1cccc(OC)c1)C([2H])([2H])[2H] [Example 12, d6-(1R,2R)-2-(Dimethylaminomethyl)-1-(3-methoxyphenyl)-cyclohexanol hydrochloride] |  |  | % increase of HLM degradation half-life >150% (column >150%): + (>150%)

— patent US20090028873A1, “SUBSTITUTED CYCLOHEXANOLS” (AUSPEX PHARMACEUTICALS, INC., priority 2007, published 2009)
